One assay deals with T1, THR-β/RXR-α (Homo sapiens, UniProt P10828).
T1 sequence (P10828 202-461 limits assumed): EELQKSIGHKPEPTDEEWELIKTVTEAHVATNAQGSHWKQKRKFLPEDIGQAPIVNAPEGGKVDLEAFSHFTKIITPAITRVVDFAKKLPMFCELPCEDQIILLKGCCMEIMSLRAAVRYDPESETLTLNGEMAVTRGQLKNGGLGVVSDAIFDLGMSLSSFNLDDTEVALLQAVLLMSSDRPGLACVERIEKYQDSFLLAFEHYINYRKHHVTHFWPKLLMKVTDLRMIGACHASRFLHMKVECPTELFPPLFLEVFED
T1 sequence (P19793 225-462 partner limits assumed): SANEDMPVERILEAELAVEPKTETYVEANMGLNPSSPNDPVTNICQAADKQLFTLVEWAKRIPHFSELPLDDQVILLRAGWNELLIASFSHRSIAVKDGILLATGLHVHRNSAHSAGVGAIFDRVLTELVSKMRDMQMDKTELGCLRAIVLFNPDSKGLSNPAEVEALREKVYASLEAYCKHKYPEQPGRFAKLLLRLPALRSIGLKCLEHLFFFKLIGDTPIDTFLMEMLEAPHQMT
T1 sequence (Q15596 679-703 partner limits assumed): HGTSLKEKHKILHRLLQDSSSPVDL
Type of assay: biochemical. Conditions: RXR heterodimer assay; compound activity normalized to T3 for THR-β/RXR-α and THR-α/RXR-α.

The target in the next assay is T2, TR beta-LBD (Homo sapiens, UniProt P10828).
T2 sequence (P10828 217-461 limits assumed): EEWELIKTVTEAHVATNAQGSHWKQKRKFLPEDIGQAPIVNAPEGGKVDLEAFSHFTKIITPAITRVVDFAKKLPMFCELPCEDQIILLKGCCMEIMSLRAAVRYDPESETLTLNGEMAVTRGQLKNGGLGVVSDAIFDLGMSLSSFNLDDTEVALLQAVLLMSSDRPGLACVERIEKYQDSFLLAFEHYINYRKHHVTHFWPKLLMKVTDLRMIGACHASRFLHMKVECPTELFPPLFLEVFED
The assay is classed as biochemical. Particulars: TR-FRET assay; THR beta over THR alpha, derived from T3-selectivity normalized data. (In general: In TR-FRET formats the signal depends on donor and acceptor labels being close together.)

Molecules are shown by their SMILES.

With `N#Cc1nn(-c2cc(Cl)c(Oc3ccc4nc5n(c4c3)CCCO5)c(Cl)c2)c(=O)[nH]c1=O` [Example 40, 2-(3,5-dichloro-4-((3,4-dihydro-2H-benzo[4,5]imidazo[2,1-b][1,3]oxazin-7-yl)oxy)phenyl)-3,5-dioxo-2,3,4,5-tetrahydro-1,2,4-triazine-6-carbonitrile], the THRβ-Selectivity at THR-β/RXR-α was determined as 11.6. Take `Cn1cc2cc(Oc3c(Cl)cc(-n4nc(C#N)c(=O)[nH]c4=O)cc3Cl)ccc2n1` [Example 17, 2-(3,5-dichloro-4-((2-methyl-2H-indazol-5-yl)oxy)phenyl)-3,5-dioxo-2,3,4,5-tetrahydro-1,2,4-triazine-6-carbonitrile]: the THRβ-Selectivity at TR beta-LBD was 2.2; at THR-β/RXR-α it was 6.3. On the same counts, the results for `CC(C)n1cnc2ccc(Oc3c(Cl)cc(NC(=O)c4noc(=O)[nH]4)cc3Cl)cc21` [Example 20, N-(3,5-dichloro-4-((1-isopropyl-1H-benzo[d]imidazol-6-yl)oxy)phenyl)-5-oxo-4,5-dihydro-1,2,4-oxadiazole-3-carboxamide] are 348.9 and 11.3. Turning to `CCc1c[nH]c2ccc(Oc3c(Cl)cc(-n4nc(C#N)c(=O)[nH]c4=O)cc3Cl)cc12` [Example 59, 2-(3,5-dichloro-4-((3-ethyl-1H-indol-5-yl)oxy)phenyl)-3,5-dioxo-2,3,4,5-tetrahydro-1,2,4-triazine-6-carbonitrile], the THRβ-Selectivity at THR-β/RXR-α was determined as 8.4. Same read-out and setting: as for `O=C(Nc1cc(Cl)c(Oc2ccc3nc4n(c3c2)CCCO4)c(Cl)c1)c1noc(=O)[nH]1` [Example 39, N-(3,5-dichloro-4-((3,4-dihydro-2H-benzo[4,5]imidazo[2,1-b][1,3]oxazin-7-yl)oxy)phenyl)-5-oxo-4,5-dihydro-1,2,4-oxadiazole-3-carboxamide], the figure is 5.1; as for `O=C(Nc1cc(Cl)c(Oc2ccc3ncn(C4(C(F)(F)F)CC4)c3c2)c(Cl)c1)c1noc(=O)[nH]1` [Example 53, N-(3,5-dichloro-4-((1-(1-(trifluoromethyl)cyclopropyl)-1H-benzo[d]imidazol-6-yl)oxy)phenyl)-5-oxo-4,5-dihydro-1,2,4-oxadiazole-3-carboxamide], 14.7.

On THR-β/RXR-α, `N#Cc1nn(-c2cc(Cl)c(Oc3ccc4nc(C5CC5)ccc4c3)c(Cl)c2)c(=O)[nH]c1=O` [Example 26, 2-(3,5-dichloro-4-((2-cyclopropylquinolin-6-yl)oxy)phenyl)-3,5-dioxo-2,3,4,5-tetrahydro-1,2,4-triazine-6-carbonitrile] returned a THRβ-Selectivity of 3.3. For the compound `Cn1cnc2ccc(Oc3c(Cl)cc(-n4nc(C#N)c(=O)[nH]c4=O)cc3Cl)cc21` [Example 19, 2-(3,5-dichloro-4-((1-methyl-1H-benzo[d]imidazol-6-yl)oxy)phenyl)-3,5-dioxo-2,3,4,5-tetrahydro-1,2,4-triazine-6-carbonitrile], the THRβ-Selectivity on TR beta-LBD is 38.0; on THR-β/RXR-α, 5.6.

With `CC(C)(C)n1cnc2ccc(Oc3c(Cl)cc(NC(=O)c4noc(=O)[nH]4)cc3Cl)cc21` [Example 37, N-(4-((1-(tert-butyl)-1H-benzo[d]imidazol-6-yl)oxy)-3,5-dichlorophenyl)-5-oxo-4,5-dihydro-1,2,4-oxadiazole-3-carboxamide], on THR-β/RXR-α, the THRβ-Selectivity is reported as 8.3. Same read-out and setting: as for `N#Cc1nn(-c2cc(Cl)c(Oc3ccc4nccc(C5CC5)c4c3)c(Cl)c2)c(=O)[nH]c1=O` [Example 52, 2-(3,5-dichloro-4-((4-cyclopropylquinolin-6-yl)oxy)phenyl)-3,5-dioxo-2,3,4,5-tetrahydro-1,2,4-triazine-6-carbonitrile], the figure is 11.9. With `Cc1n[nH]c2ccc(Oc3c(Cl)cc(-n4nc(C#N)c(=O)[nH]c4=O)cc3Cl)cc12` [Example 3, 2-(3,5-dichloro-4-((3-methyl-1H-indazol-5-yl)oxy)phenyl)-3,5-dioxo-2,3,4,5-tetrahydro-1,2,4-triazine-6-carbonitrile], the THRβ-Selectivity is listed as 32.0 at TR beta-LBD and 8.5 on THR-β/RXR-α. `CC(C)(C)n1cnc2ccc(Oc3c(Cl)cc(-n4nc(C#N)c(=O)[nH]c4=O)cc3Cl)cc21` [Example 38, 2-(4-((1-(tert-butyl)-1H-benzo[d]imidazol-6-yl)oxy)-3,5-dichlorophenyl)-3,5-dioxo-2,3,4,5-tetrahydro-1,2,4-triazine-6-carbonitrile] returned a THRβ-Selectivity at THR-β/RXR-α of 8.4. Same read-out and setting: as for `CC1(n2cnc3ccc(Oc4c(Cl)cc(NC(=O)c5noc(=O)[nH]5)cc4Cl)cc32)CC1` [Example 43, N-(3,5-dichloro-4-((1-(1-methylcyclopropyl)-1H-benzo[d]imidazol-6-yl)oxy)phenyl)-5-oxo-4,5-dihydro-1,2,4-oxadiazole-3-carboxamide], the figure is 11.8. On the same count and under the same terms, as for `O=C(Nc1cc(Cl)c(Oc2ccc3nccc(C4CC4)c3c2)c(Cl)c1)c1noc(=O)[nH]1` [Example 51, N-(3,5-dichloro-4-((4-cyclopropylquinolin-6-yl)oxy)phenyl)-5-oxo-4,5-dihydro-1,2,4-oxadiazole-3-carboxamide], the figure is 8.1. With `CC(C)n1c(=O)[nH]c2ccc(Oc3c(Cl)cc(NC(=O)c4noc(=O)[nH]4)cc3Cl)cc21` [Example 30, N-(3,5-dichloro-4-((3-isopropyl-2-oxo-2,3-dihydro-1H-benzo[d]imidazol-5-yl)oxy)phenyl)-5-oxo-4,5-dihydro-1,2,4-oxadiazole-3-carboxamide], the THRβ-Selectivity on THR-β/RXR-α stood at 9.9. The same measure, in the same setting: as for `O=C(Nc1cc(Cl)c(Oc2ccc3ncn(C4(C(F)F)CC4)c3c2)c(Cl)c1)c1noc(=O)[nH]1` [Example 55, N-(3,5-dichloro-4-((1-(1-(difluoromethyl)cyclopropyl)-1H-benzo[d]imidazol-6-yl)oxy)phenyl)-5-oxo-4,5-dihydro-1,2,4-oxadiazole-3-carboxamide], the figure is 14.3; as for `CCc1ccnc2ccc(Oc3c(Cl)cc(NC(=O)c4noc(=O)[nH]4)cc3Cl)cc12` [Example 36, N-(3,5-dichloro-4-((4-ethylquinolin-6-yl)oxy)phenyl)-5-oxo-4,5-dihydro-1,2,4-oxadiazole-3-carboxamide], 7.1. On the same count and under the same terms, as for `CCc1ccnc2ccc(Oc3c(Cl)cc(-n4nc(C#N)c(=O)[nH]c4=O)cc3Cl)cc12` [Example 35, 2-(3,5-dichloro-4-((4-ethylquinolin-6-yl)oxy)phenyl)-3,5-dioxo-2,3,4,5-tetrahydro-1,2,4-triazine-6-carbonitrile], the figure is 10.2; as for `N#Cc1nn(-c2cc(Cl)c(Oc3ccc4ncn(C5(C(F)F)CC5)c4c3)c(Cl)c2)c(=O)[nH]c1=O` [Example 56, 2-(3,5-dichloro-4-((1-(1-(difluoromethyl)cyclopropyl)-1H-benzo[d]imidazol-6-yl)oxy)phenyl)-3,5-dioxo-2,3,4,5-tetrahydro-1,2,4-triazine-6-carbonitrile], 9.0; as for `CC1(n2cnc3ccc(Oc4c(Cl)cc(-n5nc(C#N)c(=O)[nH]c5=O)cc4Cl)cc32)CC1` [Example 44, 2-(3,5-dichloro-4-((1-(1-methylcyclopropyl)-1H-benzo[d]imidazol-6-yl)oxy)phenyl)-3,5-dioxo-2,3,4,5-tetrahydro-1,2,4-triazine-6-carbonitrile], 10.1.

(Values after patent publication US12528791B2 (priority 2019, dated 2026).)
